Measurements reported in ChEMBL document CHEMBL1141354, “Isolation and structures of erylosides from the Carribean sponge Erylus goffrilleri” (J Nat Prod, 2007).

Test system: Ehrlich
Assay: Cytotoxicity against albino mouse Ehrlich carcinoma cells after 1 hr
Format: functional, cell-based

SMILES | IC50
CC(=O)N[C@H]1[C@H](O[C@H]2[C@H](O[C@H]3CC[C@]4(C)C5=C(CC[C@H]4C3(C)C)[C@]3(C(=O)O)CCC([C@H](C)CCC(C)(OC(C)=O)C(C)C)[C@@]3(C)CC5)O[C@H](CO)[C@H](O)[C@@H]2O)O[C@H](CO)[C@@H](O)[C@@H]1O (stereo partly specified) [ERYLOSIDE F6] | 20 µM
C[C@H](CCC(C)(O)C(C)(C)C)C1CC[C@]23C(=O)O[C@]4(CC[C@]12C)C3=CC[C@H]1C(C)(C)[C@@H](O[C@@H]2O[C@H](CO)[C@H](O)[C@H](O)[C@H]2O)CC[C@@]14C (stereo partly specified) [ERYLOSIDE T] | 20 µM
CC(=O)OC(C)(CC[C@@H](C)C1CC[C@@]2(C(=O)O)C3=C(CC[C@]12C)[C@@]1(C)CC[C@H](O[C@@H]2O[C@H](CO)[C@H](O)[C@H](O)[C@H]2O)C(C)(C)[C@@H]1CC3)C(C)C (stereo partly specified) [ERYLOSIDE S] | 20 µM
C[C@H](CCC(C)(O)C(C)(C)C)C1CC[C@@]2(C(=O)O)C3=C(CC[C@]12C)[C@@]1(C)CC[C@H](O[C@@H]2O[C@H](CO)[C@H](O)[C@H](O)[C@H]2O)C(C)(C)[C@@H]1CC3 (stereo partly specified) [ERYLOSIDE R] | 20 µM
C[C@H](CCC(C)(O)C(C)(C)C)C1CC[C@@]2(C(=O)O)C3=C(CC[C@]12C)[C@@]1(C)CC[C@H](O[C@@H]2OC[C@H](O)[C@H](O[C@@H]4OC[C@@H](O)[C@H](O)[C@H]4O)[C@H]2O[C@@H]2O[C@H](CO)[C@H](O)[C@H](O)[C@H]2O)C(C)(C)[C@@H]1CC3 (stereo partly specified) [ERYLOSIDE V] | 20 µM
C[C@H](CCC(C)(O)C(C)(C)C)C1CC[C@@]2(C(=O)O)C3=C(CC[C@]12C)[C@@]1(C)CC[C@H](O[C@@H]2O[C@H](CO)[C@H](O)[C@H](O[C@@H]4O[C@H](CO)[C@@H](O)[C@H](O)[C@H]4O)[C@H]2O)C(C)(C)[C@@H]1CC3 (stereo partly specified) [ERYLOSIDE F7] | 20 µM
